Read-outs that look alike come from different tables or passages of the source.

The test system of one data set is COVID-19. The settings on record: cited from earlier work.
The test system of a further data set is SARS-CoV-2 Delta. Briefly: CPE-based cell viability assay (MTT). The settings on record: read-out: EC50 against SARS-CoV-2 Delta.
The test system of a further data set is host DNA. Also noted: method as in PMID 33961695. The settings on record: cell-based assays; cited from earlier work.
Data set [1] relates to P-glycoprotein (P-gp). To be noted: cited from earlier work.
A further data set concerns SARS-CoV-2 Omicron BA.2. On the set-up: species or system Syrian hamsters. The settings on record: hamster, in vivo, 200 mg/kg.
Data set [2] concerns SARS-CoV-2 Gamma (lineage P.1). On the set-up: species or system Syrian hamsters. The settings on record: hamster, in vivo, 200 mg/kg.
Data set [3] can be described thus: Pharmacokinetics after single oral administration.
In the next data set the test system is HCoV-OC43. The settings on record: cited from earlier work.
The conditions of data set [4]: male, Syrian, hamster, in vivo.
The next data set relates to SARS-CoV-2 VOCs. The data set can be described thus: CPE-based MTT assay against SARS-CoV-2 VOCs in 293T-hACE2-TMPRSS2 cells (fig. S4). It counts as cell-based. To be noted: 293T-hACE2-TMPRSS2, fig. S4. As to the method: Antiviral compounds and antibodies were serially diluted 2-fold increments by culture medium containing 2% FBS and plated on 96-well microplates. The diluted compounds in the plates were mixed with SARS-CoV-2 and cell suspensions. The diluted antibodies were initially incubated with SARS-CoV-2 for 30 minutes and then added to the cell suspension. Cells in the plates were cultured for 2 to 3 days, and then exposed to MTT (3-[4,5-dimethyl-2-thiazolyl]-2,5-diphenyl-2H-tetrazolium bromide) (Nacalai Tesque). Cell viability was determined by measurement of absorbance at 560 nm and 690 nm. EC50 values were defined in GraphPad Prism version 8.4.3 (GraphPad Software) with a variable slope (four parameters).
Cytopathic effect (CPE) in 293T-hACE2-TMPRSS2 cells induced by SARS-CoV-2 infection was measured at 3 dpi by 3-[4,5-dimethyl-2-thiazolyl]-2,5-diphenyl-2H-tetrazolium bromide (MTT) […]
assay. […] Uninfected cells
(1 picture or pasted object on this page, not shown here)

The test system of another data set is SARS-CoV. To be noted: cited from earlier work.
A further data set concerns MERS-CoV. To be noted: cited from earlier work.
The conditions of data set [5]: healthy adults, phase 1 trial; cited from earlier work.
A further data set concerns SARS-CoV-2 Omicron BA.1. Also noted: species or system Syrian hamsters. To be noted: hamster, in vivo, 200 mg/kg.
For data set [6], the system named is SARS-CoV-2 Alpha (lineage B.1.1.7). Also noted: species or system Syrian hamsters. The settings on record: hamster, in vivo, 200 mg/kg.
Data set [7] concerns Calu-3 cells, Vero-TMPRSS2 cells, primary human bronchial epithelial cells. The data set can be described thus: Compound cytotoxicity assay (CellTiter-Glo / LDH-Glo). It counts as cell-based. The settings on record: at the examined concentrations, 3 days.
The subject of the next data set is SARS-CoV-2 Omicron BA.5. On the set-up: species or system Syrian hamsters. The settings on record: hamster, in vivo, 200 mg/kg.
The test system of data set [8] is SARS-CoV-2 Omicron BA.2.75. Also noted: species or system Syrian hamsters. The settings on record: hamster, in vivo, 200 mg/kg.
In data set [9] the test system is P-glycoprotein (P-gp). The data set can be described thus: P-gp substrate assessment. The settings on record: inferred from CP-100356 enhancement in Vero-TMPRSS2.
The mark [10] stands for this setting: Severe acute respiratory syndrome coronavirus 2, 293 T-hACE2-TMPRSS2.
Setting [11] is: Severe acute respiratory syndrome coronavirus 2, Vero/TMPRSS2, Vero-TMPRSS2.
Where [12] appears, read: Severe acute respiratory syndrome coronavirus 2, Vero/TMPRSS2, Vero-TMPRSS2 with CP-100356.

As to `CC(C)C(=O)OC[C@H]1O[C@@H](n2ccc(NO)nc2=O)[C@H](O)[C@@H]1O` [Molnupiravir, reference compound], the “decrease of the risk of hospitalization for COVID-19” value in the data set with COVID-19 (clinical trial) is listed as 30%. Further, the EC50 in the data set on SARS-CoV-2 Delta (setting [10]) came to 3680 ± 1090 nM; in the data set on SARS-CoV-2 Delta (setting [11]), 3170 ± 217 nM; in the data set on SARS-CoV-2 Delta (setting [12]), 2280 ± 118 nM. Moreover, the mutagenesis result in the data set on host DNA is recorded as “mutagenesis not only for viral RNA but also for host DNA”.
With `O=c1nc(NO)ccn1[C@@H]1O[C@H](CO)[C@@H](O)[C@H]1O` [NHC, N-hydroxycytidine], the EC50 with SARS-CoV-2 Delta (setting [10]) stood at 538 ± 142 nM; in the data set with SARS-CoV-2 Delta (setting [11]), 360 ± 49.4 nM; in the data set with SARS-CoV-2 Delta (setting [12]), 677 ± 8.89 nM.
For the compound `CC(C)(C)[C@H](NC(=O)C(F)(F)F)C(=O)N1C[C@H]2[C@@H]([C@H]1C(=O)N[C@H](C#N)C[C@@H]1CCNC1=O)C2(C)C` [Nirmatrelvir], in the data set on COVID-19, the “reduction in the risk of hospitalization or death” value is recorded as 88%. In the data set with P-glycoprotein (P-gp) [1], the “substrate of P-gp” value is recorded as “major substrates”. For the same compound, the figures for the EC50 with SARS-CoV-2 Delta (setting [10]), in the data set with SARS-CoV-2 Delta (setting [11]) and with SARS-CoV-2 Delta (setting [12]) were 37 ± 5.3 nM, greater than 1000 nM and 132 ± 32 nM, respectively.
Consider `CCC(CC)COC(=O)[C@H](C)N[P@](=O)(OC[C@H]1O[C@@](C#N)(c2ccc3c(N)ncnn23)[C@H](O)[C@@H]1O)Oc1ccccc1` [Remdesivir], for which, in the data set with P-glycoprotein (P-gp) [1], the “substrate of P-gp” value was “major substrates”. Also, the EC50 in the data set with SARS-CoV-2 Delta (setting [10]) is less than 3.9 nM; in the data set with SARS-CoV-2 Delta (setting [11]), greater than 500 nM; with SARS-CoV-2 Delta (setting [12]) it was 32 ± 4.52 nM.
With `Cn1cnc(Cn2c(=O)[nH]/c(=N\c3cc4cn(C)nc4cc3Cl)n(Cc3cc(F)c(F)cc3F)c2=O)n1` [S-217622], the “Fig. 3B: Virus titer” value (in the data set on SARS-CoV-2 Omicron BA.2; in [2]; in the data set on SARS-CoV-2 Omicron BA.1; in [6]; with SARS-CoV-2 Omicron BA.5; in [8]) was “n.d.(=100)” throughout. Moreover, the “Cmax and AUC dose proportionality” value in data set [3] (10 to 100 mg/kg) is “increased more than the dose ratio”. Also, in [3] (hamsters, plasma), the bioavailability entry was “excellent bioavailability”. Also, the half-life in data set [3] (male, Syrian, hamster, plasma, po, 100 mg/kg) fell in the range of 3.43 to 4.46 h. Further, the 90% effect concentration (EC90) with HCoV-OC43 was 74 nM. Moreover, in data set [4], the “time at which plasma concentration reached the maximum” value fell in the range of 0.5 to 2.67 h. Also, the “antiviral activity against VOCs” value in the data set with SARS-CoV-2 VOCs was “exhibited antiviral activity against all VOCs”. Also, the EC50 with SARS-CoV was 210 nM; with MERS-CoV, 1400 nM; with SARS-CoV-2 Delta (setting [10]) it was 26 ± 6.65 nM; in the data set on SARS-CoV-2 Delta (setting [11]), 407 ± 21.3 nM; with SARS-CoV-2 Delta (setting [12]), 69 ± 11.2 nM. Also, the bioavailability and tolerability result in data set [5] is “favorable bioavailability and tolerability”. Moreover, the “Fig. 3A: Viral RNA” value (in the data set on SARS-CoV-2 Omicron BA.1; in data set [8]) was “n.d.(=1)” throughout. Moreover, in [7], the cytotoxicity entry is listed as “No cytotoxicity was observed”. Besides, the “substrate of P-gp” value in the data set with P-glycoprotein (P-gp) [9] is reported as “substrate of P-gp”.

(Values after PMC9765455 (Science Translational Medicine, 2022).)
